Laboratory results as given in patent EP1149106B1, “4,5-AZOLO-OXINDOLES” (F. HOFFMANN-LA ROCHE AG, priority 1998, dated 2000).

biological target: T1, Cyclin E/CDK2 (Homo sapiens, UniProt P24941); test: CDK2 FlashPlate Assay (Rb phosphorylation, 33P-ATP); type: biochemical; conditions: Concentration 0.5 µM
T1 construct: made in house; host or cells: insect cells
Experimental: To determine inhibition of CDK2 activity, purified recombinant retinoblastoma (Rb) protein was coated on 96 well FlashPlates (New England Nuclear, Boston, MA). Rb is a natural substrate for phosphorylation by CDK2 (Herwig and Strauss Eurr. J. Biochem., Vol. 246 (1997) pp. 581-601 and references therein). Recombinant active human Cyclin E/CDK2 complexes were partially purified from extracts of insect cells. The active Cyclin E/CDK2 was added to the Rb-coated FlashPlates along with ^33P-ATP and dilutions of test compounds. Plates were incubated for 25 minutes at room temperature with shaking, then washed and counted in the Topcount scintillation counter (Packard Instrument Co., Downers Grove, IL). Dilutions of test compounds were tested in duplicate in each assay. The percent inhibition of Rb phosphorylation, which is a measure of the inhibition of CDK2 activity, was determined according to the following formula: [formula] where "test compound" refers to the average counts per minute of the test duplicates, "nonspecific" refers to the average counts per minute when no Cyclin E/CDK2 was added, and "total" refers to the average counts per minute when no compound was added.

Compound | inhibition at 0.5 µM [%]
COc1ccc(Nc2nc3c4c(ccc3[nH]2)NC(=O)/C4=C\c2[nH]ccc2OC)cc1OC [Y, (Z)-2-[N-(3,4-Dimethoxyphenyl)amino]-8-[(3-methoxy-1H-pyrrol-2-yl)methylene]-3,6,7,8-tetrahydro-pyrrolo[3,2-e]benzimidazol-7-one] | < 50
COc1ccc(CCNc2nc3c4c(ccc3[nH]2)NC(=O)/C4=C\c2[nH]ccc2OC)cc1OC [GG, (Z)-2-[N-[2-(3,4-Dimethoxyphenyl)ethyl]amino]-8-[(3-methoxy-1H-pyrrol-2-yl)methylene]-3,6,7,8-tetrahydro-pyrrolo[3,2-e]-benzimidazol-7-one] | < 50
COc1cc[nH]c1/C=C1\C(=O)Nc2ccc3[nH]c(NCc4cccc5ccccc45)nc3c21 [WW, (Z)-8-[(3-Methoxy-1H-pyrrol-2-yl)methylene]-2-[N-(1-naphthalenyl)methylamino]-3,6,7,8-tetrahydro-pyrrolo[3,2-e]-benzimidazol-7-one] | < 50
COc1cc[nH]c1/C=C1\C(=O)Nc2ccc3[nH]c(NCCCCc4ccccc4)nc3c21 [JJ, (Z)-8-[(3-Methoxy-1H-pyrrol-2-yl)methylene]-2-[N-(4-phenylbutyl)amino]-3,6,7,8-tetrahydro-pyrrolo[3,2-e]benzimidazol-7-one] | < 50
COc1ccccc1Nc1nc2c3c(ccc2[nH]1)NC(=O)/C3=C\c1[nH]ccc1OC [II, (Z)-2-[N-(2-Methoxyphenyl)amino]-8-[(3-methoxy-1H-pyrrol-2-yl)methylene]-3,6,7,8-tetrahydro-pyrrolo[3,2-e]benzimidazol-7-one] | < 50
COc1ccc(Nc2nc3c4c(ccc3[nH]2)NC(=O)/C4=C\c2[nH]ccc2OC)cc1 [Z, (Z)-2-[N-(4-Methoxyphenyl)amino]-8-[(3-methoxy-1H-pyrrol-2-yl)methylene]-3,6,7,8-tetrahydro-pyrrolo[3,2-e]benzimidazol-7-one] | < 50
COc1cc[nH]c1/C=C1\C(=O)Nc2ccc3[nH]c(Nc4ccc5c(c4)CCC5)nc3c21 [YY, (Z)-2-[N-(2,3-Dihydro-1H-inden-5-yl)amino]-8-[(3-methoxy-1H-pyrrol-2-yl)methylene]-3,6,7,8-tetrahydro-pyrrolo[3,2-e]-benzimidazol-7-one] | < 50
CCOC(=O)c1ccc(Nc2nc3c4c(ccc3[nH]2)NC(=O)/C4=C\c2[nH]ccc2OC)cc1 [CC, (Z)-4-[[8-[(3-Methoxy-1H-pyrrol-2-yl)methylene]-7-oxo-3,6,7,8-tetrahydro-imidazo[4,5-e]indol-2-yl]amino]-benzoic acid ethyl ester] | < 50
COc1cc[nH]c1/C=C1\C(=O)Nc2ccc3[nH]c(Nc4cccc(C(C)=O)c4)nc3c21 [BB, (Z)-2-[N-(3-Acetylphenyl)amino]-8-[(3-methoxy-1H-pyrrol-2-yl)methylene]-3,6,7,8-tetrahydro-pyrrolo[3,2-e]benzimidazol-7-one] | < 50
COc1cc[nH]c1/C=C1\C(=O)Nc2ccc3[nH]c(NCCCc4ccccc4)nc3c21 [XX, (Z)-8-[(3-Methoxy-1H-pyrrol-2-yl)methylene]-2-[N-(3-phenylpropyl)amino]-3,6,7,8-tetrahydro-pyrrolo[3,2-e]benzimidazol-7-one] | < 50
COC(=O)c1ccc(Nc2nc3c4c(ccc3[nH]2)NC(=O)/C4=C\c2[nH]ccc2OC)cc1 [EE, (Z)-4-[[8-[(3-Methoxy-1H-pyrrol-2-yl)methylene]-7-oxo-3,6,7,8-tetrahydro-imidazo[4,5-e]indol-2-yl]amino]-benzoic acid methyl ester] | < 50
COc1cc[nH]c1/C=C1\C(=O)Nc2ccc3[nH]c(NCc4ccc5c(c4)OCO5)nc3c21 [VV, (Z)-2-[N-(1,3-Benzodioxol-5-yl)methylamino]-8-[(3-methoxy-1H-pyrrol-2-yl)methylene]-3,6,7,8-tetrahydro-pyrrolo[3,2-e]-benzimidazol-7-one] | < 50

same assay, conditions: recombinant human Cyclin E/CDK2, Rb substrate, 25 minutes at room temperature

Compound | IC50 [µM]
Cc1nc[nH]c1/C=C1\C(=O)Nc2ccc([N+](=O)[O-])c(N=[N+]=[N-])c21 [PP, (Z)-4-Azido-1,3-dihydro-3-[(4-methyl-1H-imidazol-5-yl)methylene]-5-nitro-2H-indol-2-one] | < 3.5
COc1cc[nH]c1/C=C1\C(=O)Nc2ccc3[nH]c(NC(C)c4ccccc4)nc3c21 (racemic) [HH, rac-(Z)-8-[(3-Methoxy-1H-pyrrol-2-yl)methylene]-2-[N-(1-phenylethyl)amino]-3,6,7,8-tetrahydro-pyrrolo[3,2-e]benzimidazol-7-one] | < 3.5
Cc1nc[nH]c1/C=C1\C(=O)Nc2ccc3[nH]cnc3c21 [SS] | < 3.5
COCCCNc1nc2c3c(ccc2[nH]1)NC(=O)/C3=C\c1[nH]ccc1OC [X, (Z)-2-[N-(3-Methoxypropyl)amino]-8-[(3-methoxy-1H-pyrrol-2-yl)methylene]-3,6,7,8-tetrahydro-pyrrolo[3,2-e]benzimidazol-7-one] | < 3.5
Cc1nc[nH]c1/C=C1\C(=O)Nc2ccc([N+](=O)[O-])c(F)c21 [OO, (Z)-1,3-Dihydro-4-fluoro-3-[(4-methyl-1H-imidazol-5-yl)methylene]-5-nitro-2H-indol-2-one] | < 3.5
COc1cc[nH]c1/C=C1\C(=O)Nc2ccc3[nH]c(NCC4CCCO4)nc3c21 (centres unmarked) [KK, (Z)-8-[(3-Methoxy-1H-pyrrol-2-yl)methylene]-2-[N-[(2-tetrahydrofuranyl)methyl]-amino]-3,6,7,8-tetrahydro-pyrrolo[3,2-e] benzimidazol-7-one] | < 3.5
Cc1nc[nH]c1/C=C1\C(=O)Nc2ccc(N)c(N)c21 [RR, (Z)-4,5-Diamino-1,3-dihydro-3-[(4-methyl-1H-imidazol-5-yl)methylene]-2H-indol-2-one] | < 3.5
COc1cc[nH]c1/C=C1\C(=O)Nc2ccc3[nH]c(CCCc4ccccc4)nc3c21 [W, (Z)-2-[3-(Phenyl)propyl]-8-[(3-methoxy-1H-pyrrol-2-yl)methylene]-3,6,7,8-tetrahydro-pyrrolo[3,2-e]benzimidazol-7-one] | < 3.5
COc1cc[nH]c1/C=C1\C(=O)Nc2ccc3[nH]c(Nc4ccc(N(C)C)cc4)nc3c21 [DD, (Z)-2-[N-(4-Dimethylaminophenyl)amino]-8-[(3-methoxy-1H-pyrrol-2-yl)methylene]-3,6,7,8-tetrahydro-pyrrolo[3,2-e]-benzimidazol-7-one] | < 3.5
COc1ccc(Cc2nc3c4c(ccc3[nH]2)NC(=O)/C4=C\c2[nH]ccc2OC)cc1 [T, (Z)-2-[(4-Methoxyphenyl)methyl]-8-[(3-methoxy-1H-pyrrol-2-yl)methylene]-3,6,7,8-tetrahydro-pyrrolo[3,2-e]benzimidazol-7-one] | < 3.5
COc1cc[nH]c1/C=C1\C(=O)Nc2ccc3[nH]c(-c4ccccc4)nc3c21 [Q, (Z)-8-[(3-Methoxy-1H-pyrrol-2-yl)methylene]-2-phenyl-3,6,7,8-tatrahydro-pyrrolo[3,2-e]benzimidazol-7-one] | < 3.5
COc1cc[nH]c1/C=C1\C(=O)Nc2ccc3nc[nH]c3c21 [TT, (Z)-8-[(3-Methoxy-1H-pyrrol-2-yl)methylene]-3,6,7,8-tetrahydro-pyrrolo-[3,2-e]benzimidazol-7-one] | < 3.5
Cc1nc[nH]c1/C=C1\C(=O)Nc2ccc([N+](=O)[O-])c(N)c21 [QQ, (Z)-4-Amino-1,3-dihydro-3-[(4-methyl-1H-imidazol-5-yl)methylene]-5-nitro-2H-indol-2-one] | < 3.5
O=C1Nc2ccc3[nH]c(-c4ccccc4)nc3c2/C1=C/c1ccc[nH]1 [O, (Z)-2-Phenyl-8-[(1H-pyrrol-2-yl)methylene]-3,6,7,8-tetrahydro-pyrrolo[3,2-e]benzimidazol-7-one] | < 3.5
COc1cc[nH]c1/C=C1\C(=O)Nc2ccc3[nH]c(CCc4ccc(O)cc4)nc3c21 [V, (Z)-2-[2-(4-Hydroxyphenyl)ethyl]-8-[(3-methoxy-1H-pyrrol-2-yl)methylene]-3,6,7,8-tetrahydro-pyrrolo[3,2-e]benzimidazol-7-one] | < 3.5
COc1cc[nH]c1/C=C1\C(=O)Nc2ccc3[nH]c(-c4ccccc4O)nc3c21 [S, (Z)-2-(2-Hydroxyphenyl)-8-[(3-methoxy-1H-pyrrol-2-yl)methylene]-3,6,7,8-tetrahydro-pyrrolo[3;2-e]benzimidazol-7-one] | < 3.5
COc1cc[nH]c1/C=C1\C(=O)Nc2ccc3[nH]c(C(O)c4ccccc4)nc3c21 (racemic) [U, rac-(Z)-2-(1-Hydroxy-1-phenyl-methyl)-8-[(3-methoxy-1H-pyrrol-2-yl)methylene]-3,6,7,8-tetrahydro-pyrrolo[3,2-e]benzimidazol-7-one] | < 3.5
